Laboratory results as given in publication PMC8150690, “Effects of Extraction Conditions on Banana Peel Polyphenol Oxidase Activity and Insights into Inactivation Kinetics Using Thermal and Cold Plasma Treatment” (Foods, 2021).
Each block holds one compound with its values, some of them ahead of it.

Assays:
Type in all cases: biochemical, Musa acuminata x Musa balbisiana
[1] = test system: T1, 'Prata' banana peel polyphenol oxidase (PPO); assay: spectrophotometric, […] nm, proline-catechol adduct formation, non-linear Michaelis-Menten fit; conditions: crude extract; McIlvaine buffer pH 6.5, 30 °C; constant 50 mM L-proline as coupling agent; O2 co-substrate; read-out: apparent KM
T1 construct: native crude extract of freeze-dried peel (McIlvaine buffer pH 6.5, PVP, Triton X-100); not purified; o-diphenol oxidase activity

[2] = test system: T1, 'Prata' banana peel polyphenol oxidase (PPO); assay: spectrophotometric initial rate, […] nm, non-linear Michaelis-Menten fit; conditions: crude extract; McIlvaine buffer pH 6.5, 30 °C; O2 co-substrate
[3] = test system: T1, 'Prata' banana peel polyphenol oxidase (PPO); assay: as above; conditions: crude extract; McIlvaine buffer pH 6.5, 30 °C; O2 co-substrate; remark: listed apart in the source

Km [1]: 4.01 mM
SMILES: Cc1ccc(O)c(O)c1 [4-methylcatechol]

Km [2]: 7.54 ± 0.51 mM
SMILES: O=C(/C=C/c1ccc(O)c(O)c1)O[C@@H]1C[C@](O)(C(=O)O)C[C@@H](O)[C@H]1O [Chlorogenic acid]

SMILES: NCCc1ccc(O)c(O)c1 [Dopamine]
Km [3]: 0.94 ± 0.07 mM
